Columns and labels:
Assay in all cases: relative viability (nuclei count vs DMSO), 5 days (fraction); higher = more cells survive
A-427 = test system: A-427
In short: (§1)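 After 5 days of treatment, lung cancer cells in 1536-well plates were fixed and stained in a single step (final 0.05% Triton X-100, 1% formaldehyde, 1 ug/ml Hoechst) and their nuclei counted on 4× images. Treatment had been applied by pin tool the day after seeding as one drug alone or as a fixed anchor-drug dose with five library-drug doses (not always all listed) in √10 steps. Relative viability is the nuclei count of treated wells divided by that of vehicle wells, and values are medians of duplicate plates.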

HCC-15 = test system: HCC-15
In short: as §1

HCC-78 = test system: HCC-78
In short: as §1

HOP-62 = test system: HOP-62
In short: as §1

LC-2-ad = test system: LC-2-ad
In short: as §1

LOU-NH91 = test system: LOU-NH91
In short: as §1

LXF-289 = test system: LXF-289
In short: as §1

NCI-H1734 = test system: NCI-H1734
In short: as §1

NCI-H1755 = test system: NCI-H1755
In short: as §1

NCI-H1792 = test system: NCI-H1792
In short: as §1

NCI-H1915 = test system: NCI-H1915
In short: as §1

NCI-H1975 = test system: NCI-H1975
In short: as §1

NCI-H2126 = test system: NCI-H2126
In short: as §1

NCI-H2228 = test system: NCI-H2228
In short: as §1

NCI-H2347 = test system: NCI-H2347
In short: as §1

NCI-H460 = test system: NCI-H460
In short: as §1

NCI-H647 = test system: NCI-H647
In short: as §1

PC-3 [JPC-3] = test system: PC-3 [JPC-3]
In short: as §1

RERF-LC-KJ = test system: RERF-LC-KJ
In short: as §1

SK-LU-1 = test system: SK-LU-1
In short: as §1

SW 1573 = test system: SW 1573
In short: as §1

Q: COc1cc(N2CCC(C(N)=O)CC2)ccc1Nc1nc(N)c(Cl)c(Nc2ccccc2S(=O)(=O)C(C)C)n1 [HG-5-88-01] + CC1(C)CCC(c2ccc(Cl)cc2)=C(CN2CCN(c3ccc(C(=O)NS(=O)(=O)c4ccc(N[C@H](CCN5CCOCC5)CSc5ccccc5)c(S(=O)(=O)C(F)(F)F)c4)cc3)CC2)C1 [Navitoclax] (partner 0.5 µM) was tested. Which relative viability (A-427; first compound 0.04 µM) did it give?
A: 0.97

Q: And the relative viability (A-427; first compound 0.1265 µM)?
A: 1.04

Q: What about the relative viability (A-427; first compound 0.4 µM) of the same molecule?
A: 0.956

Q: What about the relative viability (A-427; first compound 1.265 µM) of the same molecule?
A: 1.04

Q: What about the relative viability (A-427; first compound 4 µM) of the same molecule?
A: 0.835

Q: What about the relative viability (HCC-15; first compound 0.04 µM) of the same molecule?
A: 0.702

Q: What about the relative viability (HCC-15; first compound 0.1265 µM) of the same molecule?
A: 0.74

Q: What about the relative viability (HCC-15; first compound 0.4 µM) of the same molecule?
A: 0.672

Q: What about the relative viability (HCC-15; first compound 1.265 µM) of the same molecule?
A: 0.723

Q: What about the relative viability (HCC-15; first compound 4 µM) of the same molecule?
A: 0.464

Q: And the relative viability (HCC-78; first compound 0.04 µM)?
A: 0.749

Q: And the relative viability (HCC-78; first compound 0.1265 µM)?
A: 0.555

Q: What about the relative viability (HCC-78; first compound 0.4 µM) of the same molecule?
A: 0.363

Q: What about the relative viability (HCC-78; first compound 1.265 µM) of the same molecule?
A: 0.158

Q: What about the relative viability (HCC-78; first compound 4 µM) of the same molecule?
A: 0.297

Q: What about the relative viability (HOP-62; first compound 0.04 µM) of the same molecule?
A: 0.987

Q: What about the relative viability (HOP-62; first compound 0.1265 µM) of the same molecule?
A: 0.948

Q: And the relative viability (HOP-62; first compound 0.4 µM)?
A: 0.986

Q: And the relative viability (HOP-62; first compound 1.265 µM)?
A: 0.919

Q: And the relative viability (HOP-62; first compound 4 µM)?
A: 1.01

Q: What about the relative viability (LC-2-ad; first compound 0.04 µM) of the same molecule?
A: 0.444

Q: What about the relative viability (LC-2-ad; first compound 0.1265 µM) of the same molecule?
A: 0.45

Q: What about the relative viability (LC-2-ad; first compound 0.4 µM) of the same molecule?
A: 0.477

Q: And the relative viability (LC-2-ad; first compound 1.265 µM)?
A: 0.379

Q: And the relative viability (LC-2-ad; first compound 4 µM)?
A: 0.278

Q: And the relative viability (LOU-NH91; first compound 0.04 µM)?
A: 0.72

Q: What about the relative viability (LOU-NH91; first compound 0.1265 µM) of the same molecule?
A: 0.693

Q: And the relative viability (LOU-NH91; first compound 0.4 µM)?
A: 0.605

Q: What about the relative viability (LOU-NH91; first compound 1.265 µM) of the same molecule?
A: 0.378

Q: What about the relative viability (LOU-NH91; first compound 4 µM) of the same molecule?
A: 0.468

Q: What about the relative viability (LXF-289; first compound 0.04 µM) of the same molecule?
A: 0.937

Q: And the relative viability (LXF-289; first compound 0.1265 µM)?
A: 0.979

Q: And the relative viability (LXF-289; first compound 0.4 µM)?
A: 0.972

Q: And the relative viability (LXF-289; first compound 1.265 µM)?
A: 1.01

Q: And the relative viability (LXF-289; first compound 4 µM)?
A: 1.02

Q: And the relative viability (NCI-H1734; first compound 0.04 µM)?
A: 0.771

Q: And the relative viability (NCI-H1734; first compound 0.1265 µM)?
A: 0.858

Q: What about the relative viability (NCI-H1734; first compound 0.4 µM) of the same molecule?
A: 0.943

Q: What about the relative viability (NCI-H1734; first compound 1.265 µM) of the same molecule?
A: 0.827

Q: What about the relative viability (NCI-H1734; first compound 4 µM) of the same molecule?
A: 0.757

Q: And the relative viability (NCI-H1755; first compound 0.1265 µM)?
A: 0.991

Q: What about the relative viability (NCI-H1755; first compound 0.4 µM) of the same molecule?
A: 1.01

Q: And the relative viability (NCI-H1755; first compound 1.265 µM)?
A: 1.01

Q: And the relative viability (NCI-H1755; first compound 4 µM)?
A: 1.01

Q: What about the relative viability (NCI-H1792; first compound 0.04 µM) of the same molecule?
A: 0.685

Q: And the relative viability (NCI-H1792; first compound 0.1265 µM)?
A: 0.614

Q: What about the relative viability (NCI-H1792; first compound 0.4 µM) of the same molecule?
A: 0.578

Q: And the relative viability (NCI-H1792; first compound 1.265 µM)?
A: 0.685

Q: And the relative viability (NCI-H1792; first compound 4 µM)?
A: 0.738

Q: What about the relative viability (NCI-H1915; first compound 0.04 µM) of the same molecule?
A: 0.771

Q: And the relative viability (NCI-H1915; first compound 0.1265 µM)?
A: 0.783

Q: And the relative viability (NCI-H1915; first compound 0.4 µM)?
A: 0.813

Q: And the relative viability (NCI-H1915; first compound 1.265 µM)?
A: 0.845

Q: What about the relative viability (NCI-H1915; first compound 4 µM) of the same molecule?
A: 0.669

Q: What about the relative viability (NCI-H1975; first compound 0.04 µM) of the same molecule?
A: 1.13

Q: What about the relative viability (NCI-H1975; first compound 0.1265 µM) of the same molecule?
A: 1.15

Q: What about the relative viability (NCI-H1975; first compound 0.4 µM) of the same molecule?
A: 1.09

Q: And the relative viability (NCI-H1975; first compound 1.265 µM)?
A: 0.858

Q: And the relative viability (NCI-H1975; first compound 4 µM)?
A: 0.352

Q: And the relative viability (NCI-H2126; first compound 0.04 µM)?
A: 0.88

Q: What about the relative viability (NCI-H2126; first compound 0.1265 µM) of the same molecule?
A: 0.882

Q: What about the relative viability (NCI-H2126; first compound 0.4 µM) of the same molecule?
A: 0.753

Q: What about the relative viability (NCI-H2126; first compound 1.265 µM) of the same molecule?
A: 0.84

Q: What about the relative viability (NCI-H2126; first compound 4 µM) of the same molecule?
A: 0.794

Q: What about the relative viability (NCI-H2228; first compound 0.04 µM) of the same molecule?
A: 0.65

Q: What about the relative viability (NCI-H2228; first compound 0.1265 µM) of the same molecule?
A: 0.295

Q: What about the relative viability (NCI-H2228; first compound 0.4 µM) of the same molecule?
A: 0.485

Q: What about the relative viability (NCI-H2228; first compound 1.265 µM) of the same molecule?
A: 0.417

Q: What about the relative viability (NCI-H2228; first compound 4 µM) of the same molecule?
A: 0.27

Q: And the relative viability (NCI-H2347; first compound 0.04 µM)?
A: 0.786

Q: And the relative viability (NCI-H2347; first compound 0.1265 µM)?
A: 0.863

Q: And the relative viability (NCI-H2347; first compound 0.4 µM)?
A: 0.893

Q: What about the relative viability (NCI-H2347; first compound 1.265 µM) of the same molecule?
A: 0.696

Q: And the relative viability (NCI-H2347; first compound 4 µM)?
A: 0.685

Q: What about the relative viability (NCI-H460; first compound 0.04 µM) of the same molecule?
A: 0.975

Q: What about the relative viability (NCI-H460; first compound 0.1265 µM) of the same molecule?
A: 1.12

Q: What about the relative viability (NCI-H460; first compound 0.4 µM) of the same molecule?
A: 0.901

Q: What about the relative viability (NCI-H460; first compound 1.265 µM) of the same molecule?
A: 1.15

Q: What about the relative viability (NCI-H460; first compound 4 µM) of the same molecule?
A: 1.06

Q: And the relative viability (NCI-H647; first compound 0.04 µM)?
A: 1.19

Q: What about the relative viability (NCI-H647; first compound 0.1265 µM) of the same molecule?
A: 1.26

Q: And the relative viability (NCI-H647; first compound 0.4 µM)?
A: 1.24

Q: And the relative viability (NCI-H647; first compound 1.265 µM)?
A: 1.27

Q: And the relative viability (NCI-H647; first compound 4 µM)?
A: 1.13

Q: What about the relative viability (PC-3 [JPC-3]; first compound 0.04 µM) of the same molecule?
A: 0.837

Q: And the relative viability (PC-3 [JPC-3]; first compound 0.1265 µM)?
A: 0.83

Q: What about the relative viability (PC-3 [JPC-3]; first compound 0.4 µM) of the same molecule?
A: 0.841

Q: What about the relative viability (PC-3 [JPC-3]; first compound 1.265 µM) of the same molecule?
A: 0.753

Q: What about the relative viability (PC-3 [JPC-3]; first compound 4 µM) of the same molecule?
A: 0.751

Q: What about the relative viability (RERF-LC-KJ; first compound 0.04 µM) of the same molecule?
A: 1.05

Q: What about the relative viability (RERF-LC-KJ; first compound 0.1265 µM) of the same molecule?
A: 0.846

Q: And the relative viability (RERF-LC-KJ; first compound 0.4 µM)?
A: 0.954

Q: And the relative viability (RERF-LC-KJ; first compound 1.265 µM)?
A: 0.941

Q: And the relative viability (RERF-LC-KJ; first compound 4 µM)?
A: 0.5

Q: And the relative viability (SK-LU-1; first compound 0.04 µM)?
A: 0.997

Q: And the relative viability (SK-LU-1; first compound 0.1265 µM)?
A: 0.99

Q: And the relative viability (SK-LU-1; first compound 0.4 µM)?
A: 0.791

Q: What about the relative viability (SK-LU-1; first compound 1.265 µM) of the same molecule?
A: 0.98

Q: And the relative viability (SK-LU-1; first compound 4 µM)?
A: 0.791

Q: What about the relative viability (SW 1573; first compound 0.04 µM) of the same molecule?
A: 0.952

Q: What about the relative viability (SW 1573; first compound 0.1265 µM) of the same molecule?
A: 1.05

Q: What about the relative viability (SW 1573; first compound 0.4 µM) of the same molecule?
A: 0.9

Q: And the relative viability (SW 1573; first compound 1.265 µM)?
A: 0.996

Q: And the relative viability (SW 1573; first compound 4 µM)?
A: 0.863

From the supplement of paper PMC10307832
